Assay: Penetration of polyglycerols into the layers of the skin, 7T-MALDI-FT-ICR mass spectrometry imaging (MSI)
Format: in vitro ADME
Settings: sections of human skin, preliminary study

penetration speed of polyglycerols | Substance | depth of penetration at the surface layers of the skin (epidermis and superficial dermis)
 | Polyglycerol-5 | penetrate less deeply than polyglycerol-3 or polyglycerol-4
penetrates more quickly | polyglycerol-4 | stationed in the superficial dermis
penetrates rapidly | polyglycerol-3 | reaches the superficial dermis very quickly

Reference: patent US20250041175A1, “COMPOSITION FOR SMOOTHING THE SKIN AND/OR THE LIPS” (L V M H RECHERCHE, priority 2021, published 2025)
